The record followed here is ChEMBL document CHEMBL4002643, “Tubulin-binding dibenz[c,e]oxepines: Part 2. Structural variation and biological evaluation as tumour vasculature disrupting agents” (Bioorg Med Chem, 2017).

Bounds are passed on as bounds.

A short description of assay [1]: Inhibition of porcine tubulin assembly measured for 30 mins by UV/visible spectrophotometric method. Also noted: species or system Sus scrofa.
In a further assay the test system is K562. Put plainly: Cytotoxicity against human K562 cells assessed as growth inhibition after 5 days by MTT assay. In kind it is functional, cell-based. As to conditions: K562, 120 h. For orientation: Tetrazolium assays rely on reduction of a dye to a coloured formazan, in cell work by metabolically active cells.
Assay [2] has as its system DLD-1. In words: Vascular disrupting activity in human DLD1 cells xenografted in Balb/C immunodeficient nude mouse assessed as induction of necrosis by measuring necrotic area at 400 mg/kg, iv at 1 hr post dose by haematoxylin and eosin staining-based assay (reference value: 19 +/- 9.6%). In kind it is functional. Background: Xenograft models place foreign cells or tissue in a host animal.

Assay [3] deals with DLD-1. Put plainly: Induction of vascular shutdown in human DLD1 cells xenografted in Balb/C immunodeficient nude mouse at 400 mg/kg, iv by […] dye-based microscopic method. In kind it is functional, organism-based. Conditions: TDE = time-dependent effect.
The subject of assay [4] is DLD-1. In words: Vascular disrupting activity in human DLD1 cells xenografted in Balb/C immunodeficient nude mouse assessed as induction of necrosis by measuring necrotic area at 400 mg/kg, iv at 24 hrs post dose by haematoxylin and eosin staining-based assay (reference value: 19 +/- 9.6%). In kind it is functional.
In assay [5] the test system is DLD-1. Put plainly: Induction of vascular shutdown in human DLD1 cells xenografted in Balb/C immunodeficient nude mouse assessed as vascular element counts at 400 mg/kg, iv at 4 hrs post dose by […] dye-based microscopic method (reference value: 3.73 +/- 3.1%). In kind it is functional.
Assay [6] has as its system DLD-1. Put plainly: Induction of vascular shutdown in human DLD1 cells xenografted in Balb/C immunodeficient nude mouse assessed as vascular element counts at 400 mg/kg, iv at 24 hrs post dose by […] dye-based microscopic method (reference value: 3.73 +/- 3.1%). In kind it is functional.
The subject of assay [7] is DLD-1. Put plainly: Induction of vascular shutdown in human DLD1 cells xenografted in Balb/C immunodeficient nude mouse assessed as vascular element counts at 400 mg/kg, iv at 1 hr post dose by […] dye-based microscopic method (reference value: 3.73 +/- 3.1%). In kind it is functional.
The test system of assay [8] is DLD-1. In words: Vascular disrupting activity in human DLD1 cells xenografted in Balb/C immunodeficient nude mouse assessed as induction of necrosis by measuring necrotic area at 400 mg/kg, iv at 4 hrs post dose by haematoxylin and eosin staining-based assay (reference value: 19 +/- 9.6%). In kind it is functional.

Turning to `COc1cc2c(c(OC)c1OC)-c1ccc([N+](=O)[O-])cc1COC2`, the 50% inhibitory concentration (IC50) (usually the concentration needed to halve the response being measured) in assay [1] is greater than 10 µM; in the assay on K562 it was 16 µM.

Regarding `COc1ccc(/C=C\c2cc(OC)c(OC)c(OC)c2)cc1O` [COMBRETASTATIN A4], in the assay with K562, the 50% inhibitory concentration (IC50) was 1 µM.

On to `COc1cc2c(c(OC)c1OC)-c1ccc(OP(=O)([O-])[O-])cc1[C@@H](NC(C)=O)CC2.[Na+].[Na+]`, for which the Activity was 23.2% in the assay on DLD-1 [2]; “Tde” with DLD-1 [3]; 91% in the assay on DLD-1 [4]; 0.12% in the assay with DLD-1 [5]; 0.42% in the assay with DLD-1 [6]; 0.03% in the assay on DLD-1 [7]. Also, the Activity in the assay on DLD-1 [8] worked out at 22.3%.

In turn, `COc1cc2c(c(OC)c1OC)-c1ccc(OC)c(=O)cc1[C@@H](NC(C)=O)CC2` [COLCHICINE] showed an IC50 in assay [1] of 2 µM.

On to `COc1ccc(/C=C\c2cc(OC)c(OC)c(OC)c2)cc1OP(=O)(O)O` [FOSBRETABULIN DISODIUM], for which the IC50 in [1] worked out at 0.9 µM; in the assay on K562, 0.72 µM.
